Test results as given in patent US8268990B2, “Compounds” (AstraZeneca AB, priority 2007, dated 2012).

molecular target: T1, Recombinant human TLR7 (Homo sapiens, UniProt Q9NYK1); experiment: Human TLR7 Assay (SEAP reporter); type: cell-based; settings: HEK293 cell line stably expressing human TLR7 and pNiFty2-SEAP reporter; SEAP induction after overnight incubation at 37° C., 0.1% (v/v) DMSO;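 note: SEAP driven by an NFkB-responsive composite promoter, pEC50 read at half of each compound's own maximal SEAP induction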
T1 construct: expressed in transfected cells; host or cells: HEK293 cell line stably expressing the pNiFty2-SEAP reporter plasmid; TLR7 in vector pUNO, blasticidin selection
T1 sequence (Q9NYK1 27-1049): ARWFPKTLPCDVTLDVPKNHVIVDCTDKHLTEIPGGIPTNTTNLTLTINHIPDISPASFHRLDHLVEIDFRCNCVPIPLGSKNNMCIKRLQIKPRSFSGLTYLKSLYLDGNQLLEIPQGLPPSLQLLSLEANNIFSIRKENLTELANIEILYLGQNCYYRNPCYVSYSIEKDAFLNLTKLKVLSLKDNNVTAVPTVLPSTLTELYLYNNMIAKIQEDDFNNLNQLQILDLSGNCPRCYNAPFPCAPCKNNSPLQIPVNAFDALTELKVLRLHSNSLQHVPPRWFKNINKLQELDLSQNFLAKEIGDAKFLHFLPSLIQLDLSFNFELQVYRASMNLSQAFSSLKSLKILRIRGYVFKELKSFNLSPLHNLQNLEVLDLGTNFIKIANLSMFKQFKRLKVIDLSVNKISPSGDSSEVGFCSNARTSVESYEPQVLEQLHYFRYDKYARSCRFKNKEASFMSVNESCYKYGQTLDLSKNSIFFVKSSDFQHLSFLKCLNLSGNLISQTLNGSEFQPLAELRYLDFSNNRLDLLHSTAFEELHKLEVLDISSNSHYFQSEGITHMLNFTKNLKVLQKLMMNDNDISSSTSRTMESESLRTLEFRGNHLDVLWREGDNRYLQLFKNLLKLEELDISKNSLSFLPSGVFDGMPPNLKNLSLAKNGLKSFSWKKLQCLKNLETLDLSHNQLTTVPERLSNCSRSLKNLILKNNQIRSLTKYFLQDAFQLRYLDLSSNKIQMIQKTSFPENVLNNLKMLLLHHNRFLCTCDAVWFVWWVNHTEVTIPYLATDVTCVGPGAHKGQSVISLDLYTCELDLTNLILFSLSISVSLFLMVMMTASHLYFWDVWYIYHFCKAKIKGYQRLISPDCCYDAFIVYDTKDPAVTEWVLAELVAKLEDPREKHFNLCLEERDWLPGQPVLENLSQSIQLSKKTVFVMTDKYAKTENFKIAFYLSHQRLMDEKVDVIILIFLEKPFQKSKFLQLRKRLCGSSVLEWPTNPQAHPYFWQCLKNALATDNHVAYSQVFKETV

Row | EC50 | SMILES
1 | 2 nM | CCC[C@@H](CCO)Nc1nc(N)nc(C)c1Cc1ccc(CC(=O)OC)cc1OC [Example 48, (S)-Methyl 2-(4-((2-amino-4-(1-hydroxyhexan-3-ylamino)-6-methylpyrimidin-5-yl)methyl)-3-methoxyphenyl)acetate]
2 | 200 nM | CCC[C@@H](CCO)Nc1nc(N)nc(C)c1Cc1ccc(CC(=O)OC)cc1 [Example 49, (S)-Methyl 2-(4-((2-amino-4-(1-hydroxyhexan-3-ylamino)-6-methylpyrimidin-5-yl)methyl)phenyl)acetate]
3 | 158 nM | CCCC[C@@H](CCO)Nc1nc(N)nc(C)c1Cc1ccc(CC(=O)OC)cc1 [Example 50, (S)-Methyl 2-(4-((2-amino-4-(1-hydroxyheptan-3-ylamino)-6-methylpyrimidin-5-yl)methyl)phenyl)acetate]
4 | 794 nM | CCCCCNc1nc(N)nc(C)c1CCCN(Cc1ccc(CC(=O)OC)cc1)C(=O)C1CCN(C)CC1 [Example 51, Methyl 2-(4-((N-(3-(2-amino-4-methyl-6-(pentylamino)pyrimidin-5-yl)propyl)-1-methylpiperidine-4-carboxamido)methyl)phenyl)acetate]
5 | 631 nM | CCCCCNc1nc(N)nc(C)c1CCCN(Cc1ccc(CC(=O)OC)cc1)C(=O)CSC [Example 52, Methyl 2-(4-((N-(3-(2-amino-4-methyl-6-(pentylamino)pyrimidin-5-yl)propyl)-2-(methylthio)acetamido)methyl)phenyl)acetate]
6 | 39.8 nM | CC[C@H](O)CNc1nc(N)nc(C)c1Cc1ccc(CC(=O)OC)cc1OC [Example 53, (S)-Methyl 2-(4-((2-amino-4-(2-hydroxybutylamino)-6-methylpyrimidin-5-yl)methyl)-3-methoxyphenyl)acetate]
7 | 79.4 nM | CCCCCNc1nc(N)nc(C)c1Cc1cc(CC(=O)OC)ccc1OC [Example 54, Methyl 2-(3-((2-amino-4-methyl-6-(pentylamino)pyrimidin-5-yl)methyl)-4-methoxyphenyl)acetate]
8 | 126 nM | CCCCCNc1nc(N)nc(C)c1Cc1ccc(CC(=O)OCC(C)(C)CN(C)C)cc1 [Example 55, 3-(Dimethylamino)-2,2-dimethylpropyl 2-(4-((2-amino-4-methyl-6-(pentylamino)pyrimidin-5-yl)methyl)phenyl)acetate]
9 | 251 nM | CCCCCNc1nc(N)nc(C)c1Cc1ccc(CC(=O)OCCCN2CCN(C)CC2)cc1 [Example 56, 3-(4-Methylpiperazin-1-yl)propyl 2-(4-((2-amino-4-methyl-6-(pentylamino)pyrimidin-5-yl)methyl)phenyl)acetate]
10 | 126 nM | CCCCCNc1nc(N)nc(C)c1Cc1ccc(CC(=O)OCCCCN(C)C)cc1 [Example 57, 4-(Dimethylamino)butyl 2-(4-((2-amino-4-methyl-6-(pentylamino)pyrimidin-5-yl)methyl)phenyl)acetate]
11 | 126 nM | CCCCCNc1nc(N)nc(C)c1Cc1ccc(CC(=O)OCCCN2CCOCC2)cc1 [Example 58, 3-Morpholinopropyl 2-(4-((2-amino-4-methyl-6-(pentylamino)pyrimidin-5-yl)methyl)phenyl)acetate]
12 | 126 nM | CCCCCNc1nc(N)nc(C)c1Cc1ccc(CC(=O)OC2CCN(C)CC2)cc1 [Example 59, 1-Methylpiperidin-4-yl 2-(4-((2-amino-4-methyl-6-(pentylamino)pyrimidin-5-yl)methyl)phenyl)acetate]
13 | 200 nM | CCCCCNc1nc(N)nc(C)c1Cc1ccc(CC(=O)OCC2CCN(C)CC2)cc1 [Example 60, (1-Methylpiperidin-4-yl)methyl 2-(4-((2-amino-4-methyl-6-(pentylamino)pyrimidin-5-yl)methyl)phenyl)acetate]
14 | 126 nM | CCCCCNc1nc(N)nc(C)c1Cc1ccc(CC(=O)OCCCCN2CCCC2)cc1 [Example 61, 4-(Pyrrolidin-1-yl)butyl 2-(4-((2-amino-4-methyl-6-(pentylamino)pyrimidin-5-yl)methyl)phenyl)acetate]
15 | 200 nM | CCCCCNc1nc(N)nc(C)c1Cc1ccc(CC(=O)OCC2CCN(CCOC)CC2)cc1 [Example 62, (1-(2-Methoxyethyl)piperidin-4-yl)methyl 2-(4-((2-amino-4-methyl-6-(pentylamino)pyrimidin-5-yl)methyl)phenyl)acetate]
16 | 158 nM | CCCCCNc1nc(N)nc(C)c1Cc1ccc(CC(=O)OCCCCN2CCN(C)CC2)cc1 [Example 63, 4-(4-Methylpiperazin-1-yl)butyl 2-(4-((2-amino-4-methyl-6-(pentylamino)pyrimidin-5-yl)methyl)phenyl)acetate]
17 | 2510 nM | CCCCCNc1nc(N)nc(C)c1Cc1ccc(CC(=O)OCCCCN2CCS(=O)(=O)CC2)cc1 [Example 64, 4-(1,1-Dioxidothiomorpholin-4-yl)butyl(4-{[2-amino-4-methyl-6-(pentylamino)pyrimidin-5-yl]methyl}phenyl)acetate]
18 | 158 nM | CCCCCNc1nc(N)nc(C)c1Cc1ccc(CC(=O)OCCC2CCN(C)CC2)cc1 [Example 66, 2-(1-Methylpiperidin-4-yl)ethyl 2-(4-((2-amino-4-methyl-6-(pentylamino)pyrimidin-5-yl)methyl)phenyl)acetate]
19 | 794 nM | CCCCCNc1nc(N)nc(C)c1Cc1ccc(CC(=O)OCC2CCNCC2)cc1 [Example 67, Piperidin-4-ylmethyl 2-(4-((2-amino-4-methyl-6-(pentylamino)pyrimidin-5-yl)methyl)phenyl)acetate]
20 | 631 nM | CCCCCNc1nc(N)nc(C)c1Cc1ccc(CC(=O)OCCCCN2CCC(N(C)C)CC2)cc1 [Example 68, 4-(4-(Dimethylamino)piperidin-1-yl)butyl 2-(4-((2-amino-4-methyl-6-(pentylamino)pyrimidin-5-yl)methyl)phenyl)acetate]
21 | 126 nM | CCCCNc1nc(N)nc(C)c1Cc1ccc(CC(=O)OCC2CCN(C)CC2)cc1 [Example 69, (1-Methylpiperidin-4-yl)methyl 2-(4-((2-amino-4-(butylamino)-6-methylpyrimidin-5-yl)methyl)phenyl)acetate]
22 | 1260 nM | CCC[C@@H](CO)Nc1nc(N)nc(C)c1Cc1ccc(CC(=O)OCCCCN(C)C)cc1 [Example 70, (S)-4-(Dimethylamino)butyl 2-(4-((2-amino-4-(1-hydroxypentan-2-ylamino)-6-methylpyrimidin-5-yl)methyl)phenyl)acetate]
23 | 20 nM | CCC[C@@H](CO)Nc1nc(N)nc(C)c1Cc1ccc(CC(=O)OCC2CCN(C)CC2)cc1OC [Example 71, (S)-(1-Methylpiperidin-4-yl)methyl 2-(4-((2-amino-4-(1-hydroxypentan-2-ylamino)-6-methylpyrimidin-5-yl)methyl)-3-methoxyphenyl)acetate]
24 | 15.8 nM | CCCCNc1nc(N)nc(C)c1Cc1ccc(CC(=O)OCC2CCN(C)CC2)cc1OC [Example 72, (1-Methylpiperidin-4-yl)methyl 2-(4-((2-amino-4-(butylamino)-6-methylpyrimidin-5-yl)methyl)-3-methoxyphenyl)acetate]
25 | 5.01 nM | CCCCNc1nc(N)nc(C)c1Cc1ccc(CC(=O)OCCCCN2CCCC2)cc1OC [Example 73, 4-(Pyrrolidin-1-yl)butyl 2-(4-((2-amino-4-(butylamino)-6-methylpyrimidin-5-yl)methyl)-3-methoxyphenyl)acetate]
26 | 39.8 nM | CCC[C@@H](CCO)Nc1nc(N)nc(C)c1Cc1ccc(CC(=O)OCC2CCN(C)CC2)cc1F [Example 74, (S)-(1-Methylpiperidin-4-yl)methyl 2-(4-((2-amino-4-(1-hydroxyhexan-3-ylamino)-6-methylpyrimidin-5-yl)methyl)-3-fluorophenyl)acetate]
27 | 6.31 nM | CCC[C@@H](CCO)Nc1nc(N)nc(C)c1Cc1ccc(CC(=O)OC)cc1O [Example 75, (S)-Methyl 2-(4-((2-amino-4-(1-hydroxyhexan-3-ylamino)-6-methylpyrimidin-5-yl)methyl)-3-hydroxyphenyl)acetate]
28 | 631 nM | CCC[C@@H](CO)Nc1nc(N)nc(C)c1Cc1ccc(CC(=O)OCC2CCN(C)CC2)cc1O [Example 76, (S)-(1-Methylpiperidin-4-yl)methyl 2-(4-((2-amino-4-(1-hydroxypentan-2-ylamino)-6-methylpyrimidin-5-yl)methyl)-3-hydroxyphenyl)acetate]
29 | 63.1 nM | CCCCNc1nc(N)nc(C)c1Cc1ccc(CC(=O)OC)cc1O [Example 77, Methyl 2-(4-((2-amino-4-(butylamino)-6-methylpyrimidin-5-yl)methyl)-3-hydroxyphenyl)acetate]
